Columns and labels:
[1] = Anticonvulsant effectiveness against maximal electroshock; format: in vivo, adult albino male mice (Charles River strain); conditions: for ED50: Mus musculus, at time of peak effect, limits in parentheses; for ED50 / Time of peak activity: oral, mice
Description: (§1) All tests, with the exceptions noted, were conducted on adult albino male mice (Charles River strain); the dosage consisted of the active agent suspended in 10% aqueous acacia and was administered orally unless otherwise indicated.
(§2) Anticonvulsant effectiveness of each agent against maximal electroshock was determined at the time of peak effect. The time of peak anticonvulsant activity was determined by administering dosages of various sizes to a group of animals and administering a maximal electroshock to the animals at intervals thereafter by supply 60 ma. current through a corneal electrode for 0.2 second. […] The time of peak effect thus determined was used for all subsequent tests of anticonvulsant activity on the same active agent.
The duration of the anticonvulsant effect against maximal electroshock was compared with that of phenobarbital sodium at a dosage level of 0.1 millimole/kg of each.

[2] = Acute oral toxicity; set-up: species or system adult albino male mice (Charles River strain); conditions: mouse, in vivo
Description: as §1
(§3) Acute oral toxicity and acute intraperitoneal toxicity were determined in the conventional manner. The results were expressed as LD50, the dose required to produce death in 50% of the animals treated, determined graphically, with the 95% limits shown in parentheses.

[3] = Acute intraperitoneal toxicity; set-up: species or system adult albino male mice (Charles River strain); conditions: mouse, in vivo, ip, mice, 95% limits in parentheses
Description: as §1, §3

[4] = Anticonvulsant activity against maximal electroshock in the rat; format: in vivo; conditions: rat (Sprague Dawley Strain); limits in parentheses
Description: as §2

[5] = Anticonvulsant effectiveness against Metrazol; format: in vivo, adult albino male mice (Charles River strain); conditions: oral, mice; for ED50: Mus musculus, Metrazol 106.25 mg/kg subcutaneously, limits in parentheses
Description: as §1
(§4) Anticonvulsant effectiveness was determined against a convulsive dose of Metrazol (106.25 mg/kg) injected subcutaneously; the criterior for effectiveness was failure to show clonic convulsive seizures. Anticonvulsant activity was determined against a lethal dose of strychnine sulfate (1.5 mg/kg) injected subcutaneously; the criterion was failure to die, even though seizures appeared.

[6] = reported in Doran, Medicinal Chemistry, 1959; cited from earlier work
[7] = Anticonvulsant activity against strychnine; format: in vivo, adult albino male mice (Charles River strain); conditions: Mus musculus, po, read-out: Strychnine, ED50
Description: as §1, §4

[8] = Neurological deficit (Swinyard et al. plus rotorod); set-up: species or system adult albino male mice (Charles River strain); conditions: mouse, in vivo; oral, mice; 95% limits in parentheses
Description: as §1
The dosage required to produce a neurological deficit was determined by the method of Swinyard et al., J. Pharmacol. Exptl. Therap. 106, 319 (1952) except that one additional test was employed: the ability of the animal to remain for at least one minute on a "rotorod", a horizontal rod rotated at 6 r.p.m. The results were expressed as TD50, the dose required to produce the effect, determined graphically, with 95% limits.

[9] = cited from earlier work
[10] = Hypnotic activity (loss of the righting reflex); format: in vivo, adult albino male mice (Charles River strain); conditions: any dosage less than a lethal dose for compounds of the invention
Description: as §1

[11] = 0.1 millimole/kg, maximal electroshock
[12] = oral, mice, 95% limits in parentheses, read-out: LD50 (oral)

CCC1(c2ccccc2)C(=O)NC(=O)NC1=O [phenobarbital sodium, reference compound]
time at which protection began to decrease [1, 11]: four | time at which protection was nearly gone [1, 11]: eight | onset of protection against maximal electroshock ([1]; 0.1 millimole/kg, comparator): less than 0.5 hour

COCN1C(=O)NC(c2ccccc2)(c2ccccc2)C1=O [Example 2, 3-methoxymethyl-5,5-diphenylhydantoin]
ED50 [1]: < 25 mg/kg | duration of anticonvulsant activity (maximal electroshock) ([1]; after ingestion): more than 2 hours | onset of anticonvulsant activity (maximal electroshock) ([1]; after ingestion): less than 0.5 hour | LD50 ([2]; route not stated with the value (oral unless otherwise indicated), read-out: LD50): ~500 mg/kg

CCCCOCN1C(=O)N(COCCCC)C(=O)C(CC)(c2ccccc2)C1=O [Example 4, 1,3-di-(n)-butoxymethyl-5-ethyl-5-phenyl barbituric acid]
ED50 [1]: < 100 mg/kg | LD50 [2, 12]: > 500 mg/kg

CCC1(c2ccccc2)C(=O)N(COC)C(=O)N(COC)C1=O [Example 1, 1,3-dimethoxymethyl-5-ethyl-5-phenyl barbituric acid]
LD50 [3]: 490 mg/kg | ED50 [4]: 6.6 mg/kg | ED50 [5]: 47 mg/kg | duration of protection against maximal electroshock at about the same level ([1]; 0.1 millimole/kg): more than eight | ED50 [1]: 13.5 mg/kg | Time of peak activity ([1]; maximal electroshock): 2 h | change in the ED50 to protect against maximal electroshock on repeated dosage ([1]; repeated daily dosage of the same animals for four days): no significant change | hypnotic effect [6]: without effect | LD50 [2, 12]: 470 mg/kg | ED50 [7]: 200 mg/kg | TD50 [8]: 47 mg/kg

C=CCC1(C(C)CCC)C(=O)N(COC)C(=O)N(COC)C1=O (stereo not drawn) [Example 11, 1,3-dimethoxymethyl-5-allyl-5-(2-pentyl) barbituric acid]
ED50 [5]: ~100 mg/kg | LD50 [2, 12]: > 500 mg/kg

CCCCCCCCCCCCOCN1C(=O)N(COCCCCCCCCCCCC)C(=O)C(CC)(CC)C1=O [Example 10, 1,3-di-n-dodecyloxymethyl-5,5-diethyl barbituric acid]
ED50 [5]: ~200 mg/kg | LD50 [2, 12]: > 1000 mg/kg

CCC1(c2ccccc2)C(=O)NC(=O)NC1=O [Phenobarbital, phenobarbital]
hypnotic activity ([9]; known property): exhibits hypnotic activity as well as anticonvulsant activity | anticonvulsant usefulness ([9]; long known, treatment of epilepsy): useful as anticonvulsant agents in warm-blooded animals | Hypnotic activity (loss of the righting reflex, onset of sleep) [10]: did exhibit hypnotic activity

CCOCN1C(=O)N(COCC)C(=O)C(CC)(c2ccccc2)C1=O [Example 5, 1,3-diethoxymethyl-5-ethyl-5-phenyl barbituric acid]
ED50 [1]: < 25 mg/kg | Time of peak activity ([1]; maximal electroshock): 11/2

CCCCCCCCCCCCOCN1C(=O)N(COCCCCCCCCCCCC)C(=O)C(CC)(c2ccccc2)C1=O [Example 8, 1,3-dilauryloxymethyl-5-ethyl-5-phenyl barbituric acid]
ED50 [1]: ~50 mg/kg | Time of peak activity ([1]; maximal electroshock): 2 h | LD50 [2, 12]: > 500 mg/kg

C=CCC1(C(C)CCC)C(=O)N(COCc2ccccc2)C(=O)N(COCc2ccccc2)C1=O (stereo not drawn) [Example 12, 1,3-dibenzyloxymethyl-5-allyl-5-(2-pentyl) barbituric acid]
ED50 [5]: ~200 mg/kg | LD50 [2, 12]: > 1000 mg/kg

CCCCOCN1C(=O)NC(c2ccccc2)(c2ccccc2)C1=O [Example 6, 3-(n)-butoxymethyl-5,5-diphenylhydantoin]
ED50 [1]: < 25 mg/kg | LD50 [2, 12]: > 500 mg/kg

O=C1NC(=O)C(c2ccccc2)(c2ccccc2)N1 [diphenylhydantoin]
hypnotic activity ([9]; known property): not hypnotic | undesirable side effects ([9]; known property): hypertrophic gingivitis, megaloblastic anemia, toxic psychoses, and hirsutism

CCC1(CC)C(=O)N(COC)C(=O)N(COC)C1=O [Example 9, 1,3-dimethoxymethyl-5,5-diethyl-barbituric acid]
LD50 [3]: ~1000 mg/kg | ED50 [5]: 7 mg/kg | Time of peak activity ([5]; reported with Metrazol result, test not stated): 1 h | LD50 [2, 12]: > 1000 mg/kg
